In patent US20250127842A1, “IMMUNE […] THERAPEUTIC NANOPARTICLES” (priority 2021, published 2025):

Tested on: ID8-vegfA-defb29 murine ovarian serous carcinoma cell line
Test: CPMV and CPMV-AUNP therapy in a tumor mouse model (serous ovarian cancer, IP)
Assay type: in vivo, C57BL/6J mice
Description: FIGS. 3A-3B: (FIG. 3A) Female C57BL/6 mice were inoculated (i.p.) with 2×10^6 ID8-Defb29/Vegf-A cells followed by six weekly injections (i.p.) of PBS control (n=5), 1 μg AUNP (n=3), 100 μg CPMV (n=5), 100 μg CPMV-AUNP (n=7), 100 μg CPMV+1 μg AUNP physical mixture (n=7). Body weight was measured to monitor tumor growth. Data are means±SEM. Data are plotted for a minimum of n=3 per group. (FIG. 3B) Survival curves of the treatment groups.
CPMV and CPMV-AUNP therapy in a tumor mouse model: All animal studies were conducted upon approval and in accordance with the University of California, San Diego Institutional Animal Care and Use Committee (IACUC) guidelines. […] Tumor burden was measured by increase in body weight and data were analyzed and plotted using Graphpad Prism software.
To assay efficacy of the CPMV-AUNP nanoparticle, Applicant used a mouse model of serous ovarian cancer. […] Applicant used luciferase-labeled ID8defb29/vegf cells, allowing us to quantify the disease burden and establishment of disease (data not shown). Imaging is only informative at early time points, before the development of ascites, therefore Applicant used imaging to confirm successful tumor cell injection and tumor formation but then monitored body weight to assess tumor burden and 35 grams body weight was defined as the endpoint for the study. […]

Sequence: SNTSESFGSGGGSGGC [AUNP, anti-PD-1 peptide SNTSESF (side branch of AUNP-12) with GSGGGSGG linker and carboxy-terminal cysteine, from Genscript]
- tumor burden as measured by increase in body weight (1 μg weekly IP, up to day 47 (group removed for non-treatment related reasons)): matched closely the PBS control group
- efficacy against disseminated ovarian tumors (survival, tumor burden), in words (weekly IP: 100 μg CPMV or CPMV-AUNP, 1 μg AUNP, or 100 μg CPMV+1 μg AUNP): no apparent effect
